Measured values from ChEMBL document CHEMBL5046300, “Potent Bactericidal Antimycobacterials Targeting the Chaperone ClpC1 Based on the Depsipeptide Natural Products Ecumicin and Ohmyungsamycin A” (2022).
≈ marks a conversion by molar mass, not a printed value. Calls of active or inactive are those of the source. The rule behind the calls is not given here. Where a SMILES comes first, the peptide text is derived from it. Bridges are numbered along the chain shown (N, C = ends). [ ]: non-standard residue; d: D form. NMeW = CN[C@@H](Cc1c[nH]c2ccccc12)C(=O)O; Hyp = O=C(O)[C@@H]1C[C@@H](O)CN1; NMeChg = CN[C@H](C(=O)O)C1CCCCC1; NMeT = CN[C@H](C(=O)O)[C@@H](C)O; NMeD = CN[C@@H](CC(=O)O)C(=O)O; NMeL = CN[C@@H](CC(C)C)C(=O)O; NMeNle = CCCC[C@H](NC)C(=O)O; NMeDap = CN[C@@H](CN)C(=O)O; NMeV = CN[C@H](C(=O)O)C(C)C

Experiments:
[1] = system: Mycobacterium tuberculosis; test: Antibacterial activity against Mycobacterium tuberculosis mc2 6230 assessed as reduction in viable cells at 10 times MIC measured for 42 days in solid media by time kill assay; assay type: functional; details: time 42.0 day
[2] = system: Mycobacterium tuberculosis; test: Antimycobacterial activity against Mycobacterium tuberculosis mc2 6230 measured after 7 days; assay type: functional; details: mc2 6230, 168 h, time 7 day
[3] = system: Mycobacterium tuberculosis; test: Antimycobacterial activity against Mycobacterium tuberculosis mc2 6230 assessed as log reduction in bacteria measured up to 21 days by Time kill assay; assay type: functional, organism-based; details: time day <=21

NNC(=O)c1ccncc1 was tested. Which Activity [1] did it give?
The Activity was “inactive”.

For CN[C@H](C(=O)N[C@H](C(=O)N[C@@H]1C(=O)N(C)[C@@H]([C@@H](C)O)C(=O)N[C@@H](C(C)C)C(=O)N(C)[C@@H](CC(C)C)C(=O)N[C@@H](C(C)C)C(=O)N2CCC[C@H]2C(=O)N(C)[C@@H](Cc2c[nH]c3ccccc23)C(=O)N[C@@H](C(C)C)C(=O)N[C@@H](Cc2ccccc2)C(=O)N[C@@H](C(C)C)C(=O)O[C@@H]1C)C(C)C)C(C)C (H-[NMeV]VT[NMeT]V[NMeL]VP[NMeW]VFV; ester 3-C), which MIC [2] is on record?
The MIC was 8 µM (≈ 11.2 µg/mL).

CN[C@H](C(=O)N[C@H](C(=O)N[C@@H]1C(=O)N(C)[C@@H]([C@@H](C)O)C(=O)N[C@@H](C(C)C)C(=O)N(C)[C@@H](CC(C)C)C(=O)N[C@@H](C(C)C)C(=O)N2C[C@H](O)C[C@H]2C(=O)N(C)[C@@H](Cc2c[nH]c3ccccc23)C(=O)N[C@@H](C(C)C)C(=O)N[C@@H](Cc2ccccc2)C(=O)N[C@@H](C(C)C)C(=O)O[C@@H]1C)C(C)C)C(C)C (H-[NMeV]VT[NMeT]V[NMeL]V[Hyp][NMeW]VFV; ester 3-C) was tested. Which MIC [2] did it give?
Its MIC is 8 µM (≈ 11.3 µg/mL).

For CN[C@H](C(=O)N[C@H](C(=O)N[C@@H]1C(=O)N(C)[C@@H]([C@@H](C)O)C(=O)N[C@@H](C(C)C)C(=O)N(C)[C@@H](CC(C)C)C(=O)N[C@@H](C(C)C)C(=O)N(C)[C@@H](C2CCCCC2)C(=O)N(C)[C@@H](Cc2c[nH]c3ccccc23)C(=O)N[C@@H](C(C)C)C(=O)N[C@@H](Cc2ccccc2)C(=O)N[C@@H](C(C)C)C(=O)O[C@@H]1C)C(C)C)C(C)C (H-[NMeV]VT[NMeT]V[NMeL]V[NMeChg][NMeW]VFV; ester 3-C), which MIC [2] is on record?
The MIC was 0.5 µM (≈ 0.726 µg/mL).

Which MIC [2] does the source give for CN[C@H](C(=O)N[C@H](C(=O)N[C@@H]1C(=O)N(C)[C@@H]([C@@H](C)O)C(=O)N[C@@H](C(C)C)C(=O)N(C)[C@@H](CC(C)C)C(=O)N[C@@H](C(C)C)C(=O)N(C)[C@@H](CC(=O)O)C(=O)N(C)[C@@H](Cc2c[nH]c3ccccc23)C(=O)N[C@@H](C(C)C)C(=O)N[C@@H](Cc2ccccc2)C(=O)N[C@@H](C(C)C)C(=O)O[C@@H]1C)C(C)C)C(C)C (H-[NMeV]VT[NMeT]V[NMeL]V[NMeD][NMeW]VFV; ester 3-C) here?
Its MIC is 32 µM (≈ 45.7 µg/mL).

Which MIC [2] does the source give for CN[C@H](C(=O)N[C@H](C(=O)N[C@@H]1C(=O)N(C)[C@@H]([C@@H](C)O)C(=O)N[C@@H](C(C)C)C(=O)N(C)[C@@H](CC(C)C)C(=O)N[C@@H](C(C)C)C(=O)N(C)[C@@H](CN)C(=O)N(C)[C@@H](Cc2c[nH]c3ccccc23)C(=O)N[C@@H](C(C)C)C(=O)N[C@@H](Cc2ccccc2)C(=O)N[C@@H](C(C)C)C(=O)O[C@@H]1C)C(C)C)C(C)C (H-[NMeV]VT[NMeT]V[NMeL]V[NMeDap][NMeW]VFV; ester 3-C) here?
The MIC was 2 µM (≈ 2.8 µg/mL).

CN[C@H](C(=O)N[C@H](C(=O)N[C@@H]1C(=O)N(C)[C@@H]([C@@H](C)O)C(=O)N[C@@H](C(C)C)C(=O)N(C)[C@@H](CC(C)C)C(=O)N[C@@H](C(C)C)C(=O)N(C)[C@@H](CC(C)C)C(=O)N(C)[C@@H](Cc2c[nH]c3ccccc23)C(=O)N[C@@H](C(C)C)C(=O)N[C@@H](Cc2ccccc2)C(=O)N[C@@H](C(C)C)C(=O)O[C@@H]1C)C(C)C)C(C)C (H-[NMeV]VT[NMeT]V[NMeL]V[NMeL][NMeW]VFV; ester 3-C) was tested. Which Activity [3] did it give?
The Activity was “Active”.

What about the MIC [2] of the same molecule?
Its MIC is 0.25 µM (≈ 0.357 µg/mL).

For CCCC[C@H]1C(=O)N(C)[C@@H](Cc2c[nH]c3ccccc23)C(=O)N[C@@H](C(C)C)C(=O)N[C@@H](Cc2ccccc2)C(=O)N[C@@H](C(C)C)C(=O)O[C@H](C)[C@H](NC(=O)[C@@H](NC(=O)[C@@H](NC)C(C)C)C(C)C)C(=O)N(C)[C@@H]([C@@H](C)O)C(=O)N[C@@H](C(C)C)C(=O)N(C)[C@@H](CC(C)C)C(=O)N[C@@H](C(C)C)C(=O)N1C (H-[NMeV]VT[NMeT]V[NMeL]V[NMeNle][NMeW]VFV; ester 3-C), which MIC [2] is on record?
The MIC was 0.5 µM (≈ 0.713 µg/mL).
